# Data reported in patent US20030161827A1, “Therapies that improve graft survival” (priority 2000, published 2003).
# Tested on: renal allograft
# Test: Unilateral renal transplantation, mAb and sirolimus (Example 2)
# Format: in vivo, monkey
# Details: n=4 per group; treatment until day 56, followed until day 119
# Protocol: Unilateral renal transplantation was performed in 12 blood group matched and MLR mismatched animals. […] Sirolimus was administered by daily gavage at 1 mg/kg at day 0 to day 13 and then 0.5 mg/kg from day 13 to day 56. All animals were off immunosuppression after day 56 and were then followed until day 119.
smiles,measurement,value
CO[C@H]1C[C@@H]2CC[C@@H](C)[C@@](O)(O2)C(=O)C(=O)N2CCCC[C@H]2C(=O)O[C@H]([C@H](C)C[C@@H]2CC[C@@H](O)[C@H](OC)C2)CC(=O)[C@H](C)/C=C(\C)[C@@H](O)[C@@H](OC)C(=O)[C@H](C)C[C@H](C)/C=C/C=C/C=C/1C [sirolimus],mean survival,23 days
